Measurements as given in publication PMC6591251, “Discovery of potent necroptosis inhibitors targeting RIPK1 kinase activity for the treatment of inflammatory disorder and cancer metastasis” (Cell Death & Disease, 2019).

Columns and labels:
Assay in all cases: RBC kinase panel
Format in all cases: biochemical
Settings in all cases: ATP 10 μM, Data1, Data2
[1] = molecular target: T1, ALK6/BMPR1B (Homo sapiens, UniProt O00238)
T1 construct: purchased Reaction Biology Corporation
Experimental: (§1) PK68 was tested at 1 μM in duplicate against a panel of 369 human kinases at Reaction Biology Corporation. Results are viewed in the human kinome phylogenetic tree.
(§2) ^a Compound PK68 was tested at 1 μM in duplicate against 369 kinases using the RBC kinase panel service of Reaction Biology Corporation. All the ATP concentrations used were 10 μM. […] Full protocol details are available at http://www.reactionbiology.com.

[2] = molecular target: T2, BRAF (Homo sapiens, UniProt P15056)
T2 construct: purchased Reaction Biology Corporation
T2 sequence (P15056 whole entry): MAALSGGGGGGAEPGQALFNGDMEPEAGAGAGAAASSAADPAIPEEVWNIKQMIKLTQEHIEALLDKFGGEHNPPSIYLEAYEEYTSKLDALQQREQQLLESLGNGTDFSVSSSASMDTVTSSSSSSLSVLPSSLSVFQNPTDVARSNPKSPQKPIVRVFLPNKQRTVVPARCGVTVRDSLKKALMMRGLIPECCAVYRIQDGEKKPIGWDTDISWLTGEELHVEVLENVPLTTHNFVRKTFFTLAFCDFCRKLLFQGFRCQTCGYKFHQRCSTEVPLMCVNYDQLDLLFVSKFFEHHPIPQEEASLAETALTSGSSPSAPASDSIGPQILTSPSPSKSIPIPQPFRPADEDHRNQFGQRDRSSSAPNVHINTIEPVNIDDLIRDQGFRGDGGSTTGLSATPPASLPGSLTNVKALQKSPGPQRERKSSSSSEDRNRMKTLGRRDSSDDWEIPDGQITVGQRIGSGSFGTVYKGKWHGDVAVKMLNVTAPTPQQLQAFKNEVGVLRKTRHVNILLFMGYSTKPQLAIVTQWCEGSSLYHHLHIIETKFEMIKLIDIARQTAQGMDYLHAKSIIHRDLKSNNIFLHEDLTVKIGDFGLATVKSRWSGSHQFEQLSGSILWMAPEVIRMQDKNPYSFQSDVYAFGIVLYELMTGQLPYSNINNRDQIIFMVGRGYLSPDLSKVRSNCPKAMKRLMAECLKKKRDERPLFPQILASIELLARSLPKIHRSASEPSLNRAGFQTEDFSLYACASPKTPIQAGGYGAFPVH
Experimental: as §1, §2

[3] = molecular target: T3, CAMK2a (Homo sapiens, UniProt Q9UQM7)
T3 construct: purchased Reaction Biology Corporation
Experimental: as §1, §2

[4] = molecular target: T4, CDK19/cyclin C (Homo sapiens, UniProt Q9BWU1)
T4 construct: purchased Reaction Biology Corporation
T4 sequence (Q9BWU1 whole entry): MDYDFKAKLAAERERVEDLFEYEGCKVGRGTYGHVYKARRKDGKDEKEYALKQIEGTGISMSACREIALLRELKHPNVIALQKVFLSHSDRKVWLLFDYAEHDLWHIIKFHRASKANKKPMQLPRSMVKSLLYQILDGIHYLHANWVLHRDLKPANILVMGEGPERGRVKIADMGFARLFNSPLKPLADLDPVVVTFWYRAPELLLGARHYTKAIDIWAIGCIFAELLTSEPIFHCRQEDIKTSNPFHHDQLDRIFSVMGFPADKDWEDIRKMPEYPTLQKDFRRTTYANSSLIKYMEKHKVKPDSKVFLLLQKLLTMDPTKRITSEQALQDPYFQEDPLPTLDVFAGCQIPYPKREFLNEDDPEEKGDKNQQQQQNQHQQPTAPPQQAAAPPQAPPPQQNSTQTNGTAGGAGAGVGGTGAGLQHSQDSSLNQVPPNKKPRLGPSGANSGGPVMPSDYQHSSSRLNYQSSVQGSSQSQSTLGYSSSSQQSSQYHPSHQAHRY
T4 sequence (P24863 whole entry partner): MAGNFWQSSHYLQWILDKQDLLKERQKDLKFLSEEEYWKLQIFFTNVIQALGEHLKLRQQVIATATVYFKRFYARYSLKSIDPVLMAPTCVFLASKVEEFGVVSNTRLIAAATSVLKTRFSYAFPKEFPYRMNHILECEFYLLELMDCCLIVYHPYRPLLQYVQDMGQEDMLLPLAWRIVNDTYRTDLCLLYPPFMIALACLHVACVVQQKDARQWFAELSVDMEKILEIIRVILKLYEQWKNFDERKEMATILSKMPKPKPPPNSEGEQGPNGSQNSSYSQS
Experimental: as §1, §2

[5] = molecular target: T5, CDK2/cyclin A (Homo sapiens, UniProt P24941)
T5 construct: purchased Reaction Biology Corporation
Experimental: as §1, §2

[6] = molecular target: T6, CK2a2 (Homo sapiens, UniProt P19784)
T6 construct: purchased Reaction Biology Corporation
Experimental: as §1, §2

[7] = molecular target: T7, EPHA1 (Homo sapiens, UniProt P21709)
T7 construct: purchased Reaction Biology Corporation
Experimental: as §1, §2

[8] = molecular target: T8, EPHA6 (Homo sapiens, UniProt Q9UF33)
T8 construct: purchased Reaction Biology Corporation
Experimental: as §1, §2

[9] = molecular target: T9, EPHB2 (Homo sapiens, UniProt P29323)
T9 construct: purchased Reaction Biology Corporation
Experimental: as §1, §2

[10] = molecular target: T10, FES/FPS (Homo sapiens, UniProt P07332)
T10 construct: purchased Reaction Biology Corporation
Experimental: as §1, §2

[11] = molecular target: T11, FGFR1 (Homo sapiens, UniProt P11362)
T11 construct: purchased Reaction Biology Corporation
Experimental: as §1, §2

[12] = molecular target: T12, GRK3 (Homo sapiens, UniProt P35626)
T12 construct: purchased Reaction Biology Corporation
Experimental: as §1, §2

[13] = molecular target: T13, GRK7 (Homo sapiens, UniProt Q8WTQ7)
T13 construct: purchased Reaction Biology Corporation
Experimental: as §1, §2

[14] = molecular target: T14, HCK (Homo sapiens, UniProt P08631)
T14 construct: purchased Reaction Biology Corporation
T14 sequence (P08631 whole entry): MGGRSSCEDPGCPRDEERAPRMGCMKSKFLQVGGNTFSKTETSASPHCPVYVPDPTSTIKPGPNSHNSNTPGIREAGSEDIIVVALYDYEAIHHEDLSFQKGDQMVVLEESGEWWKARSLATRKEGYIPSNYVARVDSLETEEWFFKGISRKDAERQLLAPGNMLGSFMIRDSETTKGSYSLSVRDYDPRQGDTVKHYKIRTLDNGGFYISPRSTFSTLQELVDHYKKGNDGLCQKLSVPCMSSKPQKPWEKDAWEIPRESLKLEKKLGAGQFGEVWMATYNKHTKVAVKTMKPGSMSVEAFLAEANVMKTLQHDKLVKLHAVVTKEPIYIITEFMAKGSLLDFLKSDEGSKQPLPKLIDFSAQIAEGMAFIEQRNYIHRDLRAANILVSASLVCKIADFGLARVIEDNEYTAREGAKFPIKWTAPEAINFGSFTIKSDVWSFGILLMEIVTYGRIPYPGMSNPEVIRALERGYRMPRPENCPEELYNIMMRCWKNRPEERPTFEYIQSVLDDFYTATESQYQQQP
Experimental: as §1, §2

[15] = molecular target: T15, IRAK1 (Homo sapiens, UniProt P51617)
T15 construct: purchased Reaction Biology Corporation
T15 sequence (P51617 whole entry): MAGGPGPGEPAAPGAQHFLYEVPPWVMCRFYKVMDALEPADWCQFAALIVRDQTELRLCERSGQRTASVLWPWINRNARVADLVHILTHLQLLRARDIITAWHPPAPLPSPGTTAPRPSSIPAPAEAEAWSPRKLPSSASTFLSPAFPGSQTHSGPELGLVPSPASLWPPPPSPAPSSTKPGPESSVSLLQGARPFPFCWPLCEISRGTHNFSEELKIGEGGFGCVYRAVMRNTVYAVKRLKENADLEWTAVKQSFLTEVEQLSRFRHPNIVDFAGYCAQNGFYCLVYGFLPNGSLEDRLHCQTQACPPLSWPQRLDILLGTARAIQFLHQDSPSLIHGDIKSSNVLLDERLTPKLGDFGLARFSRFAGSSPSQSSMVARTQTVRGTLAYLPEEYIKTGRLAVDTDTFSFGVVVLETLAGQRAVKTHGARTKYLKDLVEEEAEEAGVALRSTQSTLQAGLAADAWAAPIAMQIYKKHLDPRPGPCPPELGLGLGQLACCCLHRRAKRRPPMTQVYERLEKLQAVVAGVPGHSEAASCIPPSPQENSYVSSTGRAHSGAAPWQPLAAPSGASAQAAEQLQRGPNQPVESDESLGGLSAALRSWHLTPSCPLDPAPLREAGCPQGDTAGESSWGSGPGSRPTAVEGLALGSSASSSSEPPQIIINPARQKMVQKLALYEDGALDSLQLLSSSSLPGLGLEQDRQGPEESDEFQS
Experimental: as §1, §2

[16] = molecular target: T16, IRAK4 (Homo sapiens, UniProt Q9NWZ3)
T16 construct: purchased Reaction Biology Corporation
Experimental: as §1, §2

[17] = molecular target: T17, JAK3 (Homo sapiens, UniProt P52333)
T17 construct: purchased Reaction Biology Corporation
T17 sequence (P52333 whole entry): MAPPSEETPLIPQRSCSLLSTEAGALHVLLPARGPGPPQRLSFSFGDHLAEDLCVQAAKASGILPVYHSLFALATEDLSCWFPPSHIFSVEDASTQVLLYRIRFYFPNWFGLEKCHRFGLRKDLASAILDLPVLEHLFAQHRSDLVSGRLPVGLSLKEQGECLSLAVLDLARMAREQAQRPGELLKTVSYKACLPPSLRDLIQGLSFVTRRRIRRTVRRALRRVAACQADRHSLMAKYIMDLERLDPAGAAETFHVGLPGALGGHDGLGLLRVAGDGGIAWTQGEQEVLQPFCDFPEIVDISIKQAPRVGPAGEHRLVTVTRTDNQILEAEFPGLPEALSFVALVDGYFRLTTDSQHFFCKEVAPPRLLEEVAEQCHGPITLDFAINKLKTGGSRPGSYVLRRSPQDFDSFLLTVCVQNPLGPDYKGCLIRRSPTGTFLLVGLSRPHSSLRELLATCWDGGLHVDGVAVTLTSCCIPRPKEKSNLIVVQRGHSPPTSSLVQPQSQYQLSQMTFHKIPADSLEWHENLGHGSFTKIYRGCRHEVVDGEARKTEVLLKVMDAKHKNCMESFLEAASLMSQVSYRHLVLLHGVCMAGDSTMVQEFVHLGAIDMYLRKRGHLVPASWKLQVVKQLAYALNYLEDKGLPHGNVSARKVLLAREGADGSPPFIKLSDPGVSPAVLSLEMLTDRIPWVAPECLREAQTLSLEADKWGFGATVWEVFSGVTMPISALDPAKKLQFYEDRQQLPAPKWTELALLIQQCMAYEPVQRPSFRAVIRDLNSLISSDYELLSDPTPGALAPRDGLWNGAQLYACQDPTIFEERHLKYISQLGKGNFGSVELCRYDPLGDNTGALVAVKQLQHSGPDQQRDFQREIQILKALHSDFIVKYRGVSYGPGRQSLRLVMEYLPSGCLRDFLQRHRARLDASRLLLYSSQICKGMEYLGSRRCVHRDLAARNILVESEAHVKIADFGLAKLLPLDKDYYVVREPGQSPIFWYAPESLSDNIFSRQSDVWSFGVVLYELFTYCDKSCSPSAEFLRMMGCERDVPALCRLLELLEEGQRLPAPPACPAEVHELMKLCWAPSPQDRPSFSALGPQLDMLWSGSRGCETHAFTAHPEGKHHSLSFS
Experimental: as §1, §2

[18] = molecular target: T18, MARK4 (Homo sapiens, UniProt Q96L34)
T18 construct: purchased Reaction Biology Corporation
Experimental: as §1, §2

[19] = molecular target: T19, MEK2 (Homo sapiens, UniProt P36507)
T19 construct: purchased Reaction Biology Corporation
Experimental: as §1, §2

[20] = molecular target: T20, PAK1 (Homo sapiens, UniProt Q13153)
T20 construct: purchased Reaction Biology Corporation
Experimental: as §1, §2

[21] = molecular target: T21, PAK3 (Homo sapiens, UniProt O75914)
T21 construct: purchased Reaction Biology Corporation
Experimental: as §1, §2

[22] = molecular target: T22, PBK/TOPK (Homo sapiens, UniProt Q96KB5)
T22 construct: purchased Reaction Biology Corporation
T22 sequence (Q96KB5 whole entry): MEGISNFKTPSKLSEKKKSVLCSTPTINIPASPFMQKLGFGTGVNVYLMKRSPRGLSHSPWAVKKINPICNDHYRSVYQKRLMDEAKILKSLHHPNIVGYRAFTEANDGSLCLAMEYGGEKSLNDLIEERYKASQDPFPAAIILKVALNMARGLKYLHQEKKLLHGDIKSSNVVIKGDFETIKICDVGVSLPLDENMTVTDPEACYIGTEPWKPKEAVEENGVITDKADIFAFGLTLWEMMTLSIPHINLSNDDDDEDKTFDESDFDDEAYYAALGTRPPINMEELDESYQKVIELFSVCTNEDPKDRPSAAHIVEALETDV
Experimental: as §1, §2

[23] = molecular target: T23, PKAcg (Homo sapiens, UniProt P22612)
T23 construct: purchased Reaction Biology Corporation
Experimental: as §1, §2

[24] = molecular target: T24, PKG1b (Homo sapiens, UniProt Q13976)
T24 construct: purchased Reaction Biology Corporation
Experimental: as §1, §2

[25] = molecular target: T25, PKN3/PRK3 (Homo sapiens, UniProt Q6P5Z2)
T25 construct: purchased Reaction Biology Corporation
Experimental: as §1, §2

[26] = molecular target: T26, PLK1 (Homo sapiens, UniProt P53350)
T26 construct: purchased Reaction Biology Corporation
Experimental: as §1, §2

[27] = molecular target: T27, STK32C/YANK3 (Homo sapiens, UniProt Q86UX6)
T27 construct: purchased Reaction Biology Corporation
Experimental: as §1, §2

[28] = molecular target: T28, STK33 (Homo sapiens, UniProt Q9BYT3)
T28 construct: purchased Reaction Biology Corporation
T28 sequence (Q9BYT3 whole entry): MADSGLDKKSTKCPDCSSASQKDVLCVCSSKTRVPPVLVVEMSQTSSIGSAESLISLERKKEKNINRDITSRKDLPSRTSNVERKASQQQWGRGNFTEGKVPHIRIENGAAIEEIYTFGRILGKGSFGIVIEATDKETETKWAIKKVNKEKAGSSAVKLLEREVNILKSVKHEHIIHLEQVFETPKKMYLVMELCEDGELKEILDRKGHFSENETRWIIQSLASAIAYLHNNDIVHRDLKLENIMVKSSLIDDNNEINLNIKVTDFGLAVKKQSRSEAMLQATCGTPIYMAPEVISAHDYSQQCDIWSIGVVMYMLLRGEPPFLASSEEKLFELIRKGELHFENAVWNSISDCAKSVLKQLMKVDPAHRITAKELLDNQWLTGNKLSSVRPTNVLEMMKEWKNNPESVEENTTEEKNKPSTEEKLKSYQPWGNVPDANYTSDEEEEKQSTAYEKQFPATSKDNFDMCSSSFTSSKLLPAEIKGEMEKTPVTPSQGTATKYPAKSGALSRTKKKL
Experimental: as §1, §2

[29] = molecular target: T29, TAK1 (Homo sapiens, UniProt O43318)
T29 construct: purchased Reaction Biology Corporation
Experimental: as §1, §2

[30] = molecular target: T30, TSSK3/STK22C (Homo sapiens, UniProt Q96PN8)
T30 construct: purchased Reaction Biology Corporation
T30 sequence (Q96PN8 whole entry): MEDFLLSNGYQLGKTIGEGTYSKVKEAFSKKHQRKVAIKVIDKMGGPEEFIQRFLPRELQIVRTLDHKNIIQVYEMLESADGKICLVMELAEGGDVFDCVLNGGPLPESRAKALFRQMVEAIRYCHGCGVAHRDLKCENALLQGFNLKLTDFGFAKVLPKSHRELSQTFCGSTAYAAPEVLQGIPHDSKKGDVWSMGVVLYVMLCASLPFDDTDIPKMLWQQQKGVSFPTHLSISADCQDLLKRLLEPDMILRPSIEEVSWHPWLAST
Experimental: as §1, §2

[31] = molecular target: T31, ULK3 (Homo sapiens, UniProt Q6PHR2)
T31 construct: purchased Reaction Biology Corporation
Experimental: as §1, §2

[32] = molecular target: T32, WNK2 (Homo sapiens, UniProt Q9Y3S1)
T32 construct: purchased Reaction Biology Corporation
Experimental: as §1, §2

[33] = molecular target: T33, ZIPK/DAPK3 (Homo sapiens, UniProt O43293)
T33 construct: purchased Reaction Biology Corporation
Experimental: as §1, §2

With `CC(=O)Nc1nc2ccc(-c3cnc(C)c(NC(=O)OC4CCCCC4)c3)cc2s1` [PK68, cyclohexyl (5-(2-acetamidobenzo[d]thiazol-6-yl)-2-methylpyridin-3-yl)carbamate] the Activity% ([1]; 1 μM) was 91.83%, the activity at 1 µM [1] was 92.5% and the Activity% ([2]; 1 μM) was 83.61%. It also gave an activity at 1 µM [2] of 84.8%, an Activity% ([3]; 1 μM) of 99.17% and an activity at 1 µM [3] of 100%. It also gave an Activity% ([4]; 1 μM) of 99.34%, an activity at 1 µM [4] of 101% and an Activity% ([5]; 1 μM) of 97.94%. For the same compound, the activity at 1 µM [5] was 98.5%, the Activity% ([6]; 1 μM) was 100.37% and the activity at 1 µM [6] was 101%. For the same compound, the Activity% ([7]; 1 μM) was 100.48%, the activity at 1 µM [7] was 101% and the Activity% ([8]; 1 μM) was 97.58%. For the same compound, the activity at 1 µM [8] was 98.1%, the Activity% ([9]; 1 μM) was 101.30% and the activity at 1 µM [9] was 102%. The Activity% ([10]; 1 μM) was 96.80%, the activity at 1 µM [10] was 96.9% and the Activity% ([11]; 1 μM) was 104.83%. For the same compound, the activity at 1 µM [11] was 105%, the Activity% ([12]; 1 μM) was 102.09% and the activity at 1 µM [12] was 103%. It also gave an Activity% ([13]; 1 μM) of 95.94%, an activity at 1 µM [13] of 96.5% and an Activity% ([14]; 1 μM) of 100.14%. The activity at 1 µM [14] was 102%, the Activity% ([15]; 1 μM) was 90.54% and the activity at 1 µM [15] was 92.5%. The Activity% ([16]; 1 μM) was 85.85%, the activity at 1 µM [16] was 86.9% and the Activity% ([17]; 1 μM) was 92.17%. The activity at 1 µM [17] was 92.9%, the Activity% ([18]; 1 μM) was 101.55% and the activity at 1 µM [18] was 103%. It also gave an Activity% ([19]; 1 μM) of 97.14%, an activity at 1 µM [19] of 97.2% and an Activity% ([20]; 1 μM) of 101.03%. The activity at 1 µM [20] was 102%, the Activity% ([21]; 1 μM) was 99.63% and the activity at 1 µM [21] was 103%. The Activity% ([22]; 1 μM) was 97.84%, the activity at 1 µM [22] was 98.4% and the Activity% ([23]; 1 μM) was 94.66%. The activity at 1 µM [23] was 95.6%, the Activity% ([24]; 1 μM) was 84.59% and the activity at 1 µM [24] was 85%. For the same compound, the Activity% ([25]; 1 μM) was 92.58%, the activity at 1 µM [25] was 94.1% and the Activity% ([26]; 1 μM) was 93.68%. It also gave an activity at 1 µM [26] of 94.6%, an Activity% ([27]; 1 μM) of 100.29% and an activity at 1 µM [27] of 101%. The Activity% ([28]; 1 μM) was 91.58%, the activity at 1 µM [28] was 91.6% and the Activity% ([29]; 1 μM) was 96.74%. It also gave an activity at 1 µM [29] of 97.5%, an Activity% ([30]; 1 μM) of 103.77% and an activity at 1 µM [30] of 104%. The Activity% ([31]; 1 μM) was 92.16%, the activity at 1 µM [31] was 92.9% and the Activity% ([32]; 1 μM) was 94.21%. For the same compound, the activity at 1 µM [32] was 94.6%, the Activity% ([33]; 1 μM) was 98.55% and the activity at 1 µM [33] was 100%.
